Assay results reported in patent US9440941B2, “Substituted chroman-6-yloxy-cycloalkanes and their use as pharmaceuticals” (SANOFI, priority 2013, dated 2016).

Target: T1, human NCX1 (Homo sapiens, UniProt P32418)
T1 construct: expressed in transfected cells
Assay: Inhibition of Ca2+ efflux out of cells (NCX1 forward mode), FLIPR calcium assay
Assay type: cell-based
Conditions: CHO cells stably expressing human NCX1; Ca2+ efflux after Ionomycin; read-out: NCX1fw IC50 (inhibition of NCX1 in forward mode)
Description: The sodium/calcium exchanger NCX1 can transport calcium ions and sodium ions through the cell membrane. The transport is an exchange of Ca^2+ and Na^+ in two directions depending on membrane potential and ion gradients. At the first direction, named “forward mode” or “calcium export mode”, Ca^2+ is transported out of the cell and Na^+ is transported into the cell. At the other direction, named “reverse mode” or “calcium import mode”, the transport directions are vice versa. The effect of the compounds of the invention on NCX1 was determined in CHO cells stably expressing human NCX1 (gene symbol SLC8A1; cf. WO 2009/115238). The assay is based on the monitoring of intracellular Ca^2+ concentrations using a calcium-sensitive fluorescence dye which is detected by means of a FLIPR device (Fluorimetric Imaging Plate Reader, Molecular Devices).
Assay Technology—Forward Mode
The assay is based on the monitoring of intracellular Ca^2+ concentrations using the PBX Calcium Assay Kit from BD (Becton, Dickinson and Company) with calcium indicator dye 51-9000177BKa (BD, 640177). CHO cells expressing NCX1 were loaded with the dye, and after a preincubation period with the test compound, lonomycin (Calbiochem, 407950) was added. lonomycin is an ionophor for Ca^2+ ions mediating an increase of intracellular Ca^2+ ions. Consequently, intracellular Ca^2+ ions are exchanged against extracellular Na^+ ions (Ca^2+ efflux, forward mode). The decrease of intracellular Ca^2+ ions was detected by measuring the fluorescence of the calcium indicator dye at a wavelength of 520 nm by a FLIPR device.
Briefly, similarly as for the reverse mode, for the forward mode transport assay 18000 cells per well were seeded into a 96 well microplate (Corning COSTAR 3904) and incubated overnight in culture medium (cf. above). A total volume of 100 μl medium per well was used. For the preparation of the FLIPR assay, the culture medium was removed from the plates and 100 μl of assay buffer (133.8 mM NaCl (Sigma, S5886); 4.7 mM KCl (Sigma, P3911); 1.25 mM MgCl2 (Merck, 1.05833.0250); 3.5 mM CaCl2 (Merck, 1.02083.0250); 5 mM glucose (Sigma, G7021); 10 mM Hepes (Sigma, H4034); pH 7.4)) were added to each well in a washing step. Assay buffer was removed, and 100 μl of a solution of the test compound in assay buffer in different concentrations were added into the wells. Further, 100 μl of dye solution (0.09% (v/v) calcium indicator dye, 9.1% (v/v) signal enhancer (from PBX Calcium Assay Kit); in assay buffer) were added into each well. The plates were incubated in the dark at room temperature for 60 min. Meanwhile a 10 μM solution of lonomycin in assay buffer (additionally containing 0.05% fetal calf serum (cf. above); 4° C.) was prepared and stored in the wells of a 96 well microplate (96 well microplate, polypropylene, U-shape (Greiner Bio-One, 650201)). The fluorescence monitoring was performed at 60 measuring points with measurement intervals of 2 sec. After the fifth measuring point, 50 μl of the lonomycin solution were added to each well of the assay plate to give a final lonomycin concentration of 2 μM. For the determination of the IC50 values the minimal fluorescence value was subtracted from the maximal fluorescence value for the fifteenth to fifty-fifth measuring points. The calculation of the IC50 values via the percentage inhibitions of Ca^2+ efflux out of cells (forward mode) effected by the test compound was performed in Biost@t Speed 2.0. “NCX1fw IC50” in Table 2 means the IC50 value (in μM (micromol/liter)) for inhibition of NCX1 in forward mode.

| SMILES | IC50 |
| --- | --- |
| Cc1ccccc1C1CCc2cc(O[C@H]3CC[C@H](N)CC3)ccc2O1.Cl (stereo partly drawn) [Example 156, trans-4-(2-o-Tolyl-chroman-6-yloxy)-cyclohexylamine] | 1.5 µM |
| Cc1ccccc1C1CCc2cc(OC3CCC(C(=O)NCc4ccno4)CC3)ccc2O1 (stereo not shown) [Example 158, N-(Isoxazol-5-ylmethyl)-4-(2-o-tolyl-chroman-6-yloxy)-cyclohexanecarboxamide] | 2.2 µM |
| NCC(=O)N[C@H]1CC[C@H](Oc2ccc3c(c2)CC[C@@H](c2ccccc2)O3)CC1 [Example 159, 2-Amino-N-[trans-4-((S)-2-phenyl-chroman-6-yloxy)-cyclohexyl]-acetamide] | 2.5 µM |
| Cc1ccccc1C1CCc2cc(OC3CCC(NCc4c(C)nn(C)c4C)CC3)ccc2O1 (stereo not shown) [Example 177, 4-(2-o-Tolyl-chroman-6-yloxy)-N-(1,3,5-trimethylpyrazol-4-ylmethyl)-cyclohexylamine] | 0.2 µM |
| O=C(N[C@H]1CC[C@H](Oc2ccc3c(c2)CCC(c2ccccc2)O3)CC1)[C@@H]1CCCN1 (stereo partly drawn) [Example 180, (S)—N-[trans-4-(2-Phenyl-chroman-6-yloxy)-cyclohexyl]-pyrrolidine-2-carboxamide] | 10 µM |
| Cc1ccccc1[C@@H]1CCc2cc(O[C@H]3CC[C@H](C(=O)NCCO)CC3)ccc2O1 [Example 268, trans-4-((S)-2-o-tolyl-chroman-6-yloxy)-cyclohexanecarboxylic acid (2-hydroxy-ethyl)-amide] | 0.5 µM |
| Cc1ccccc1[C@@H]1CCc2cc(O[C@H]3CC[C@H](C(=O)NCCOP(=O)([O-])[O-])CC3)ccc2O1.[Na+].[Na+] [Example 303, Phosphoric acid mono-(2-{[trans-4-((S)-2-o-tolyl-chroman-6-yloxy)-cyclohexanecarbonyl]-amino}-ethyl) ester disodium salt] | 2.5 µM |
